Literature values in patent US11369672B2 (priority 2012, dated 2022).
In brackets after ≈: the same amount, converted by molar mass.

Tested on: Mtb H37Rv

SMILES: CO[C@H]1/C=C/O[C@@]2(C)Oc3c(C)c(O)c4c(O)c(c(/C=N/N5CCN(C)CC5)c(O)c4c3C2=O)NC(=O)/C(C)=C\C=C\[C@H](C)[C@H](O)[C@@H](C)[C@@H](O)[C@@H](C)[C@H](OC(C)=O)[C@@H]1C [RIF, rifampin]
- minimum inhibitory concentration: 0.25 µM (≈ 0.206 µg/mL)
